Experimental findings from patent US20070203126A1, “Synergistic Mixtures of O-Phenylphenol and Dazomet” (priority 2002, published 2007) are described below.

Experiment [1] concerns artificial bacterial consortium containing approximately equal numbers of six bacterial strains. The experiment in a line: bacterial growth inhibition dose protocol in synthetic white water (O.D. 650 nm, 4 hours). Format: cell-based. The settings on record: for Synergy Index: Dazomet & NaOPP, end point 50% inhibition, SI<1 synergism. Here is the method:
The actives were evaluated in synthetic white water with pH values of 5.5 and 8.0. The materials were tested against an artificial bacterial consortium containing approximately equal numbers of six bacterial strains. […] Two of the strains were Kiebsiella pneumoia (ATCC 13883) and Pseudomonas aeruginosa (ATCC 15442). The other four strains were isolated from papermill systems and have been identified as Curtobacterium flaccumfaciens, Burkhlderia cepacia, Bacillus maroccanus, and Pseudomonas glethei. Each strain was inoculated at 37° C. overnight, then suspended in sterile saline. Equal volumes of each strain were then combined to prepare the consortium. The bacterial consortium was distributed into the wells of a microtiter plate in the presence or absence of various concentrations of the active materials. The microtiter plates were incubated at 37° C. Optical density (O.D.) readings at 650 nm were taken initially (t0) and after time 4 hours (t4) of incubation.
The raw data was converted to “bacterial growth inhibition percentages” according to the following formula: % Inhibition=[(a−b)÷a]·100 […]
a=(O.D. of control at tn)−(O.D. of control at t0) b=(O.D. of treatment at tn)−(O.D. of treatment at t0)
The inhibition values can be plotted versus dosage for each active and the particular blend. […] The synergism index (SI) was calculated by the equations described by F. C. Kull, P. C. Eisman, H. D. Sylwestrowicz, and R. L. Mayer (1961), Applied Microbiology 9, 538-541. The values are based on the amount needed to achieve a specified end point. […] Synergy Index (SI)=(QA÷Qa)+(QB÷Qb) […]
QA=quantity of compound A in mixture, producing the end point
Qa=quantity of compound A1 acting alone, producing the end point
QB=quantity of compound B in mixture, producing the end point
Qb=quantity of compound B1 acting alone, producing the end point
If SI is less than 1, synergism exists; if SI is greater than 1, antagonism exists, if SI is equal to 1, an additive effect exists.

The subject of experiment [2] is mixed inoculum of bacteria. The experiment in a line: microtiter plate MIC and combination (K value) test in nutrient broth. Format: cell-based. Conditions: 24 hours, read-out: MIC RESULTS against mixed inoculum of bacteria. Here is the method: EQUIPMENT used for the experiment are as follows: • 1. Incubator capable of maintaining a variable temperature range (25-45 C.); • 2. Samples of each biocide or test compound to be examined; • 3. Microtiter plates—96 well with lid, sterile; • 4. 8-12 channel micropipetting device capable of pipetting 0-250 ul volumes; • 5. Micropipette tips capable of holding up to 250 ul volumes; • 6. Sterile microbiological culture broth. Trypticase Soy Broth (TSB) or Nutrient Broth (NB) is recommended for bacteria and Sabouraud Maltose Broth (SMB) or Sabouraud Dextrose Broth (SDB) is recommended for yeasts and molds. In the case of this particular study the microbiological culture medium was Nutrient Broth at pH 7.0, 8.0 and 9.0; • 7. Pure cultures of microorganisms of choice grown on appropriate agar medium; • 8. Sterile distilled water; • 9. 100 mL volumetric flasks (one for each biocide to be tested); • 10. Sterile 10 mL tubes of Phosphate buffer (Butterfield's buffer pH 7.2+/−0.2). Contains purified water, monobasic potassium phosphate and sodium hydroxide for pH adjustment; • 11. Sterile cotton swabs; • 12. 0.5 MacFarland Turbidity Standard;
Preparation of Bacterial Inocula
The day before testing, perform a streak plate of each organism to be tested on an appropriate agar medium (Trypticase Soy Agar). Organisms tested in this study were.
Wild strain bacteria isolated from previously contaminated industrial systems and which were identified as: Pseudomonas sp., Escherchia coli, Enterobacter sp., Alcaligenes sp. and Alcaligenes faecalis. On the day of the test, use a sterile cotton swab to harvest some of the growth. Place swab into a tube containing 10 mL sterile phosphate buffer. Compare and adjust the turbidity of the organisms in the tube to 1×10^8 cfu/mL using a 0.5 MacFarland Turbidity Standard. Dilute the 10 mL tube into 90 mL of sterile 2× nutrient broth at pH 7.0, 8.0 and 9.0.
The following procedure was used: • 1. Design the layout of the microtiter plates based on the number of organisms to test and the number of biocides and desired concentrations to test. A separate microtiter plate is required for testing each biocide alone, in addition to the combination microtiter plate. • 2. Prepare a working stock solution of each biocide to be tested. For the combination microtiter plate, the working stock solution of Biocide A will be 8× the concentration desired in the first well of the combination microtiter plate. The working stock solution of Biocide B will be 4× the concentration desired in the first well of the combination microtiter plate. For the alone microtiter plates, the working stock solutions of Biocide A and Biocide B will both be 4× the concentration desired in the first well of the single biocide microtiter plates.
Tetrahydro-3-5-dimethyl-2H-1,3-5-thiadiazine-2-thione (Dazomet): (For combination plates) A solution of this product, which is 99% active, was made as follows: […]=8000 ppm active=8000/0.99=8080 ppm, 0.8 g into 100 mL MeOH and sterile diH2O.
o-Phenylphenol (OPP): (For combination plates) Make a solution of this product which is 99% active, 4×125=500 ppm active=500/0.99=505 ppm, 0.05 g into 100 mL MeOH and sterile diH2O. Level to test is 125 ppm.
(For alone plates) A solution was made as follows: 4×4000=16000 ppm active=16000/0.99=16161 ppm, 1.6 into 100 mL MeOH and sterile diH2O. Levels to test are: 4000 ppm, 2000 ppm, 1000 ppm, 500 ppm, 250 ppm, 125 ppm, 62.5 ppm, 31.2 ppm, 15.6 ppm, 7.8 ppm, 3.9 ppm, 1.95 ppm • 3. Place 50 ul of sterile distilled water in all of the rows in columns 1 through 10, and 100 ul of sterile distilled water in all of the rows in columns 11 and 12 of the 96 well combination microtiter plate. Place 100 ul of sterile distilled water in each well of the 96 well alone microtiter plates. • 4. For the combination microtiter plate, place 50 ul of the Biocide A stock solution into all of the rows in column 1 of the combination microtiter plate. • 5. […]

Read-outs that look alike come from different tables or passages of the source.

On to `CN1CSC(=S)N(C)C1` [Dazomet, tetrahydo-3,5-dimethyl-2H-1-3-5-thiadiazine-2-thione], for which the “Synergy Index” value in experiment [1] (pH 5.5) and in experiment [1] (pH 8.0) was 1.00 in each case. Besides, the “ppm Dazomet” value in experiment [1] (pH 5.5, Dazomet alone or in blend with NaOPP giving 50% inhibition, ppm active) is 6.176 ppm. Besides, the “Ppm Dazomet” value in experiment [1] (pH 8.0, Dazomet alone or in blend with NaOPP giving 50% inhibition, ppm active) was found to be 5.34 ppm. The MIC in experiment [2] (pH 7.0, biocide alone) stood at 2000 µg/mL; in experiment [2] (pH 8.0, biocide alone), 2000 µg/mL; in experiment [2] (pH 9.0, biocide alone), 4000 µg/mL.

As to `Oc1ccccc1-c1ccccc1` [OPP, o-Phenylphenol], the MIC in experiment [2] (pH 7.0, biocide alone) amounted to 2000 µg/mL; in experiment [2] (pH 8.0, biocide alone), 1000 µg/mL; in experiment [2] (pH 9.0, biocide alone), 500 µg/mL.
